Target: T1, TGF-beta receptor type-1 [4-503,T204D] (Homo sapiens, UniProt P36897, T204D)
T1 construct: 4-503
Assay: Enzyme Assay and Luciferase Reporter Assay
Details: pH 7.5; 30 °C

SMILES	EC50
Cc1cccc(-c2nn3c(c2-c2ccnc4ccc(C(=O)NCCN(C)C)cc24)CCC3)n1 [N-[2-(dimethylamino)ethyl]-4-[2-(6-methylpyridin-2-yl)-4H,5H,6H-pyrrolo[1,2-a]pyrazol-3-yl]quinoline-6-carboxamide]	0.468 µM
CN1CCN(CCOc2ccc3c(-c4c(-c5ccccn5)nn5c4CCC5)ccnc3c2)CC1 [7-[2-(4-methylpiperazin-1-yl)ethoxy]-4-[2-(pyridin-2-yl)-4H,5H,6H-pyrrolo[1,2-a]pyrazol-3-yl]quinoline]	0.038 µM
CN1CCN(CCCOc2ccc3c(-c4c(-c5ccccn5)nn5c4CCC5)ccnc3c2)CC1 [7-[3-(4-methylpiperazin-1-yl)propoxy]-4-[2-(pyridin-2-yl)-4H,5H,6H-pyrrolo[1,2-a]pyrazol-3-yl]quinoline]	0.044 µM
CN(C)C(=O)c1ccc(Oc2ccc3c(-c4c(-c5ccccn5)nn5c4CCC5)ccnc3c2)cc1 [N,N-dimethyl-4-({4-[2-(pyridin-2-yl)-4H,5H,6H-pyrrolo[1,2-a]pyrazol-3-yl]quinolin-7-yl}oxy)benzamide]	15 µM
CN1CCCC1CCCOc1ccc2c(-c3c(-c4ccccn4)nn4c3CCC4)ccnc2c1 (stereo not given) [7-[3-(1-methylpyrrolidin-2-yl)propoxy]-4-[2-(pyridin-2-yl)-4H,5H,6H-pyrrolo[1,2-a]pyrazol-3-yl]quinoline]	0.017 µM
Cc1cccc(-c2nn3c(c2-c2ccnc4ccc(OC(F)(F)F)cc24)CCC3)n1 [4-[2-(6-methylpyridin-2-yl)-4H,5H,6H-pyrrolo[1,2-a]pyrazol-3-yl]-6-(trifluoromethoxy)quinoline]	0.201 µM
COc1cc(OC)c2nccc(-c3c(-c4cccc(C)n4)nn4c3CCC4)c2c1 [6,8-dimethoxy-4-[2-(6-methylpyridin-2-yl)-4H,5H,6H-pyrrolo[1,2-a]pyrazol-3-yl]quinoline]	7.2 µM
CN1CCN(C(=O)COc2ccc3c(-c4c(-c5ccccn5)nn5c4CCC5)ccnc3c2)CC1 [1-(4-methylpiperazin-1-yl)-2-({4-[2-(pyridin-2-yl)-4H,5H,6H-pyrrolo[1,2-a]pyrazol-3-yl]quinolin-7-yl}oxy)ethan-1-one]	0.26 µM

Further lines, results first:

EC50	SMILES
0.403 µM	COC(=O)c1ccc2nccc(-c3c(-c4cccc(C)n4)nn4c3CCC4)c2c1 [methyl 4-[2-(6-methylpyridin-2-yl)-4H,5H,6H-pyrrolo[1,2-a]pyrazol-3-yl]quinoline-6-carboxylate]
> 20 µM	c1ccc(-c2nn3c(c2-c2cc(N4CCCC4)nc4ccccc24)CCC3)nc1 [4-[2-(pyridin-2-yl)-4H,5H,6H-pyrrolo[1,2-a]pyrazol-3-yl]-2-(pyrrolidin-1-yl)quinoline]
> 20 µM	O=C(O)c1ccc(Oc2ccc3c(-c4c(-c5ccccn5)nn5c4CCC5)ccnc3c2)cc1 [4-({4-[2-(pyridin-2-yl)-4H,5H,6H-pyrrolo[1,2-a]pyrazol-3-yl]quinolin-7-yl}oxy)benzoic acid]
0.951 µM	Cc1cccc(-c2nn3c(c2-c2ccnc4c(F)cccc24)CCC3)n1 [8-fluoro-4-[2-(6-methylpyridin-2-yl)-4H,5H,6H-pyrrolo[1,2-a]pyrazol-3-yl]quinoline]
0.066 µM	ClCCOc1ccc2c(-c3c(-c4ccccn4)nn4c3CCC4)ccnc2c1 [7-(2-chloroethoxy)-4-[2-(pyridin-2-yl)-4H,5H,6H-pyrrolo[1,2-a]pyrazol-3-yl]quinoline]
0.061 µM	CCN(C)CCOc1ccc2c(-c3c(-c4ccccn4)nn4c3CCC4)ccnc2c1 [ethyl(methyl)[2-({4-[2-(pyridin-2-yl)-4H,5H,6H-pyrrolo[1,2-a]pyrazol-3-yl]quinolin-7-yl}oxy)ethyl]amine]
0.024 µM	CN(C)CCCCCOc1ccc2c(-c3c(-c4ccccn4)nn4c3CCC4)ccnc2c1 [dimethyl[5-({4-[2-(pyridin-2-yl)-4H,5H,6H-pyrrolo[1,2-a]pyrazol-3-yl]quinolin-7-yl}oxy)pentyl]amine]
0.2 µM	Oc1ccc2c(-c3c(-c4ccccn4)nn4c3CCC4)ccnc2c1 [4-[2-(pyridin-2-yl)-4H,5H,6H-pyrrolo[1,2-a]pyrazol-3-yl]quinolin-7-ol]
0.08 µM	c1ccc(-c2nn3c(c2-c2ccnc4cc(OCC5CCCO5)ccc24)CCC3)nc1 (stereo not given) [7-(oxolan-2-ylmethoxy)-4-[2-(pyridin-2-yl)-4H,5H,6H-pyrrolo[1,2-a]pyrazol-3-yl]quinoline]
0.055 µM	Cc1cccc(-c2nn3c(c2-c2ccnc4ccc(Br)cc24)CCC3)n1 [6-bromo-4-[2-(6-methylpyridin-2-yl)-4H,5H,6H-pyrrolo[1,2-a]pyrazol-3-yl]quinoline]
> 20 µM	CCSc1cc(-c2c(-c3ccccn3)nn3c2CCC3)c2ccccc2n1 [2-(ethylsulfanyl)-4-[2-(pyridin-2-yl)-4H,5H,6H-pyrrolo[1,2-a]pyrazol-3-yl]quinoline]
> 20 µM	Clc1cc(-c2c(-c3ccccn3)nn3c2CCC3)c2ccccc2n1 [2-chloro-4-[2-(pyridin-2-yl)-4H,5H,6H-pyrrolo[1,2-a]pyrazol-3-yl]quinoline]

— BindingDB's records for doi:10.1021/jm701199p (Eli Lilly, 2008)
